# Test results published in ChEMBL document CHEMBL5252632, “Small molecule-based fluorescent probes for the detection of α-Synuclein aggregation states” (Bioorg Med Chem Lett, 2023).
# What was measured:
# [1] = biological target: Amyloid-beta precursor protein (Homo sapiens, UniProt P05067); assay: Binding affinity to amyloid beta (1 to 40) (unknown origin) aggregates assessed as dissociation constant
# Alpha-synuclein [2] = biological target: T1, Alpha-synuclein (Homo sapiens, UniProt P37840); assay: Binding affinity to Alpha-synuclein (unknown origin) assessed as dissociation constant
# Alpha-synuclein [3] = biological target: T1, Alpha-synuclein; assay: Binding affinity to human recombinant Alpha-synuclein assessed as dissociation constant by fluorometric method
# Alpha-synuclein [4] = biological target: T1, Alpha-synuclein; assay: Binding affinity to C-terminal His6-tagged human Alpha-synuclein fibrils (1 to 97 residues) expressed in Escherichia coli assessed as association constant by chromatography method
# Amyloid-beta precursor protein, sequence (P05067 whole entry): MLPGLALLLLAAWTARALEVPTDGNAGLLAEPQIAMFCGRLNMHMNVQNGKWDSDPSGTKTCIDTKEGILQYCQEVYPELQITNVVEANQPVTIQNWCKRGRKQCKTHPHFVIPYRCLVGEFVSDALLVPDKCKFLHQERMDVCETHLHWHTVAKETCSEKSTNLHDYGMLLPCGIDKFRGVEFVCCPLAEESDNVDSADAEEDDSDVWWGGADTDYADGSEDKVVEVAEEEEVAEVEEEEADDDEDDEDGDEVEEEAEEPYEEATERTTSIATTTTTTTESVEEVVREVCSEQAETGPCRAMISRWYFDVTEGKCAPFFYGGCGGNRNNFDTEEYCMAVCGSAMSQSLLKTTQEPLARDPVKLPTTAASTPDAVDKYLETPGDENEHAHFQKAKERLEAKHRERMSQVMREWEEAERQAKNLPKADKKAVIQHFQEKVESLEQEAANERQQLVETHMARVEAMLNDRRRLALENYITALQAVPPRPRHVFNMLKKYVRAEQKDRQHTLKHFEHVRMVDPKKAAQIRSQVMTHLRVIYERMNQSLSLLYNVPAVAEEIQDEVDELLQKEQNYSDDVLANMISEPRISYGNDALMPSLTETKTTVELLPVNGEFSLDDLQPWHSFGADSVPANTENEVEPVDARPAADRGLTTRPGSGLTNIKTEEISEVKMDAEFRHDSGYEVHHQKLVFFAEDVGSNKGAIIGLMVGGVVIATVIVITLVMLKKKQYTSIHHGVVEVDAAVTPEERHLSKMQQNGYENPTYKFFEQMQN
Compound,Kd [1] [µM],Kd (Alpha-synuclein [2]) [µM],further results
COc1ccc2nc(-c3ccc(N4CCCC4)cc3)sc2c1,0.22,–,–
COc1ccc2c(c1)sc(-c1ccc(N3CCOCC3)cc1)[n+]2C,–,118,–
COc1ccc2nc(-c3ccc(N4CCOCC4)cc3)sc2c1,0.22,–,–
COc1ccc2c(c1)sc(-c1ccc(N(C)C)cc1)[n+]2C,–,118,–
O=S(=O)(O)c1ccc2cc(Nc3ccccc3)ccc2c1,–,–,Kd (Alpha-synuclein [3]): 8.8 µM
COc1ccc2nc(-c3ccc(N4CCCCCC4)cc3)sc2c1,0.22,–,–
COc1ccc2nc(-c3ccc(N(C)C)cc3)sc2c1,0.22,–,–
COc1ccc2c(c1)sc(-c1ccc(N3CCCCC3)cc1)[n+]2C,–,118,–
COc1ccc2c(c1)sc(-c1ccc(N3CCCCCC3)cc1)[n+]2C,–,118,–
OCCOC(=C\C=C1N(c2ccccc2)c2cc3ccccc3cc2N1c1ccccc1)/C=C/c1n(-c2ccccc2)c2cc3ccccc3cc2[n+]1-c1ccccc1,–,–,Ka (Alpha-synuclein [4]): 380000 M⁻¹
COc1ccc2c(c1)sc(-c1ccc(N3CCCCCCC3)cc1)[n+]2C,–,118,–
COc1ccc2nc(-c3ccc(N4CCCCC4)cc3)sc2c1,0.22,–,–
CN(C)c1ccc2nc(/C=C/C=C/C=C(C#N)C#N)sc2c1,0.048,–,–
O=S(=O)(O)c1cccc2c(-c3ccc(Nc4ccccc4)c4c(S(=O)(=O)O)cccc34)ccc(Nc3ccccc3)c12,–,–,Kd (Alpha-synuclein [3]): 8.6 µM
COc1ccc2nc(-c3ccc(N4CCCCCCC4)cc3)sc2c1,0.22,–,–
